Laboratory results from US4678780A, “Anti-spasmodic agents having a ring in the main chain” (United Pharmaceuticals, Inc., priority 1986, dated 1987).
Counter-ions that a name gives are not always drawn.

Experiments:
muscarinic receptors = assay type: binding, rabbit (New Zealand White); settings: at a concentration of 1.0 × 10^-5 M; 0.1 nM [3H]QNB; 37° C., 60 min; pH 7.4
[1] = in vivo; cited from earlier work
[2] = system: gastrointestinal tract, biliary tract, ureter and uterus; settings: in vivo; cited from earlier work

| SMILES | % inhibition of ^3 H[QNB] binding (muscarinic receptors) [%] | atropinic side effects [1] | decrease spasm [2] |
| --- | --- | --- | --- |
| CCN(CC)CCSC(=O)c1ccc(C(C)(C)C)cc1 [4-t-butyl-benzoyl-thio-S-(2-diethylaminoethyl)-ester.HCl] | 21 |  |  |
| CCN(CC)CCSC(=O)C(c1ccccc1)c1ccccc1 [Thiphenamil hydrochloride] |  | without producing characteristic atropinic side effects on salivary and sweat glands, GI glands, the eye or the cardiovascular system | decrease spasm of the gastrointestinal tract, biliary tract, ureter and uterus |
